Test results as given in the CheMixHub drug solubility set.

Experiment: xn = mol fraction of the nth substance listed, in the solute-free solvent

Clc1ncnc2[nH]ccc12 + C1CCOC1 + CC#N
solubility (g/100 g solution)
Conditions | 278.15 K | 283.15 K | 288.15 K | 293.15 K | 298.15 K | 303.15 K | 308.15 K | 313.15 K | 318.15 K | 323.15 K
x2 = 0.1144 | 1.32 | 1.6 | 1.93 | 2.31 | 2.76 | 3.28 | 3.83 | 4.5 | 5.24 | 6.02
x2 = 0.2441 | 2.03 | 2.39 | 2.84 | 3.33 | 3.92 | 4.49 | 5.24 | 5.97 | 6.81 | 7.73
x2 = 0.3923 | 3.17 | 3.65 | 4.24 | 4.84 | 5.58 | 6.34 | 7.13 | 8.04 | 9.06 | 10.1
x2 = 0.4748 | 3.9 | 4.49 | 5.13 | 5.83 | 6.63 | 7.45 | 8.34 | 9.34 | 10.4 | 11.5
x2 = 0.5636 | 5.02 | 5.61 | 6.32 | 7.09 | 8 | 8.89 | 9.89 | 10.9 | 12 | 13.2
x2 = 0.7635 | 7.14 | 8 | 8.83 | 9.79 | 10.7 | 11.8 | 12.8 | 14 | 15.2 | 16.4

Clc1ncnc2[nH]ccc12 + C1CCOC1 + CC(C)O
solubility (g/100 g solution)
Conditions | 278.15 K | 283.15 K | 288.15 K | 293.15 K | 298.15 K | 303.15 K | 308.15 K | 313.15 K | 318.15 K | 323.15 K
x2 = 0.1584 | 3.68 | 4.2 | 4.8 | 5.46 | 6.15 | 6.89 | 7.74 | 8.58 | 9.6 | 10.6
x2 = 0.32 | 5.12 | 5.79 | 6.49 | 7.25 | 8.17 | 9.04 | 9.96 | 10.9 | 12 | 13.2
x2 = 0.4848 | 6.63 | 7.38 | 8.22 | 9.03 | 9.99 | 10.9 | 12 | 13.1 | 14.2 | 15.3
x2 = 0.5685 | 7.34 | 8.12 | 8.96 | 9.81 | 10.8 | 11.9 | 12.8 | 14 | 15.1 | 16.3
x2 = 0.6531 | 7.99 | 8.83 | 9.69 | 10.6 | 11.6 | 12.6 | 13.7 | 14.7 | 15.8 | 17
x2 = 0.8247 | 8.95 | 9.82 | 10.7 | 11.6 | 12.6 | 13.5 | 14.6 | 15.7 | 16.7 | 17.9

Clc1ncnc2[nH]ccc12 + C1CCOC1 + CCOC(C)=O
solubility (g/100 g solution)
Conditions | 278.15 K | 283.15 K | 288.15 K | 293.15 K | 298.15 K | 303.15 K | 308.15 K | 313.15 K | 318.15 K | 323.15 K
x2 = 0.1937 | 2.62 | 2.95 | 3.32 | 3.75 | 4.21 | 4.72 | 5.25 | 5.79 | 6.4 | 7.07
x2 = 0.3753 | 3.46 | 3.9 | 4.38 | 4.87 | 5.45 | 6.03 | 6.66 | 7.34 | 8.06 | 8.83
x2 = 0.5458 | 4.65 | 5.2 | 5.79 | 6.4 | 7.13 | 7.83 | 8.57 | 9.41 | 10.2 | 11.2
x2 = 0.6272 | 5.34 | 5.93 | 6.58 | 7.23 | 8 | 8.79 | 9.64 | 10.5 | 11.4 | 12.4
x2 = 0.7061 | 5.97 | 6.66 | 7.32 | 8.1 | 8.9 | 9.77 | 10.6 | 11.5 | 12.6 | 13.5
x2 = 0.8573 | 7.35 | 8.08 | 8.82 | 9.69 | 10.6 | 11.6 | 12.5 | 13.5 | 14.6 | 15.7

Clc1ncnc2[nH]ccc12 + C1CCOC1 + CO
solubility (g/100 g solution)
Conditions | 278.15 K | 283.15 K | 288.15 K | 293.15 K | 298.15 K | 303.15 K | 308.15 K | 313.15 K | 318.15 K | 323.15 K
x2 = 0.09054 | 4.18 | 4.85 | 5.59 | 6.45 | 7.41 | 8.85 | 9.6 | 10.8 | 12.2 | 13.6
x2 = 0.1993 | 6.2 | 7.11 | 8.13 | 9.15 | 10.3 | 11.6 | 12.9 | 14.3 | 15.9 | 17.4
x2 = 0.3323 | 8.17 | 9.22 | 10.3 | 11.4 | 12.7 | 14.1 | 15.4 | 17 | 18.5 | 20.2
x2 = 0.4107 | 8.75 | 9.76 | 10.9 | 12 | 13.4 | 14.6 | 16.1 | 17.5 | 19.1 | 20.7
x2 = 0.4989 | 9.02 | 10 | 11.1 | 12.2 | 13.5 | 14.8 | 16.1 | 17.5 | 18.9 | 20.5
x2 = 0.7134 | 8.95 | 9.87 | 10.8 | 11.8 | 13 | 14 | 15.2 | 16.5 | 17.7 | 19.1

CN1CCN(C(=O)OC2c3nccnc3C(=O)N2c2ccc(Cl)cn2)CC1 (centres undefined) + C1CCOC1 + O
solubility (g/100 g solution)
Conditions | x2 = 0.3 | x2 = 0.4 | x2 = 0.5 | x2 = 0.6 | x2 = 0.7 | x2 = 0.8 | x2 = 0.9
288.15 K | 0.41 | 0.79 | 1.33 | 2.06 | 2.8 | 3.32 | 3.83
298.15 K | 0.626 | 1.14 | 1.83 | 2.66 | 3.57 | 4.41 | 4.87
308.15 K | 0.91 | 1.54 | 2.43 | 3.54 | 4.53 | 5.71 | 6.18
318.15 K | 1.13 | 2 | 3.21 | 4.68 | 6.19 | 7.53 | 8.07
328.15 K | 1.47 | 2.59 | 4.15 | 6.16 | 8.4 | 9.55 | 9.98

Cc1ccc(Nc2nccc(N(C)c3ccc4c(C)n(C)nc4c3)n2)cc1S(N)(=O)=O + CC#N + CC(C)O
solubility (g/100 g solution)
Conditions | 288.15 K | 293.15 K | 298.15 K | 303.15 K | 308.15 K | 313.15 K | 318.15 K | 323.15 K | 328.15 K
x2 = 0.2679 | 0.00834 | 0.0123 | 0.0162 | 0.0208 | 0.0257 | 0.0311 | 0.0374 | 0.0456 | 0.0557
x2 = 0.4939 | 0.0116 | 0.0198 | 0.0273 | 0.0362 | 0.0457 | 0.0552 | 0.0651 | 0.0758 | 0.0876
x2 = 0.6871 | 0.0161 | 0.0249 | 0.0344 | 0.0445 | 0.0553 | 0.0662 | 0.079 | 0.0943 | 0.113
x2 = 0.8541 | 0.0119 | 0.0172 | 0.0243 | 0.0311 | 0.0393 | 0.0478 | 0.0563 | 0.0666 | 0.0803

O=C1NS(=O)(=O)c2ccccc21 + CC#N + CC(C)O
solubility (g/100 g solution)
Conditions | x2 = 0.0998 | x2 = 0.2002 | x2 = 0.2999 | x2 = 0.3996 | x2 = 0.5004 | x2 = 0.5997 | x2 = 0.7001 | x2 = 0.7997 | x2 = 0.8996
293.15 K | 4.08 | 5.79 | 7.19 | 8.27 | 8.87 | 8.79 | 8.19 | 7 | 5.08
298.15 K | 4.75 | 6.64 | 8.05 | 9.07 | 9.79 | 9.66 | 8.97 | 7.68 | 5.75
303.15 K | 5.49 | 7.5 | 9.3 | 10.4 | 11.2 | 10.8 | 10.1 | 8.77 | 6.38
308.15 K | 6.33 | 8.56 | 10.5 | 11.7 | 12.3 | 12.3 | 11.5 | 9.73 | 7.32
313.15 K | 7.35 | 10 | 12.1 | 13.4 | 14.2 | 14.1 | 13.1 | 11.2 | 8.37
318.15 K | 8.79 | 11.8 | 14.1 | 15.5 | 16.3 | 16.2 | 15.1 | 12.9 | 9.59
323.15 K | 10.3 | 13.5 | 16 | 17.6 | 18.3 | 18 | 16.8 | 14.3 | 10.7

Cc1ccc(Nc2nccc(N(C)c3ccc4c(C)n(C)nc4c3)n2)cc1S(N)(=O)=O + CC#N + CCCCO
solubility (g/100 g solution)
Conditions | 288.15 K | 293.15 K | 298.15 K | 303.15 K | 308.15 K | 313.15 K | 318.15 K | 323.15 K | 328.15 K
x2 = 0.311 | 0.00876 | 0.015 | 0.0216 | 0.0293 | 0.0367 | 0.0447 | 0.0534 | 0.0638 | 0.0746
x2 = 0.5462 | 0.0159 | 0.0251 | 0.0355 | 0.0464 | 0.0592 | 0.0722 | 0.0852 | 0.1 | 0.117
x2 = 0.7303 | 0.0138 | 0.0237 | 0.0349 | 0.047 | 0.0614 | 0.0758 | 0.0904 | 0.107 | 0.126
x2 = 0.8784 | 0.0109 | 0.0167 | 0.0237 | 0.0316 | 0.0398 | 0.05 | 0.0607 | 0.0728 | 0.0871

Cc1ccc(Nc2nccc(N(C)c3ccc4c(C)n(C)nc4c3)n2)cc1S(N)(=O)=O + CC#N + CCCO
solubility (g/100 g solution)
Conditions | 288.15 K | 293.15 K | 298.15 K | 303.15 K | 308.15 K | 313.15 K | 318.15 K | 323.15 K | 328.15 K
x2 = 0.2679 | 0.0118 | 0.0186 | 0.0265 | 0.0356 | 0.0456 | 0.0555 | 0.066 | 0.0779 | 0.0924
x2 = 0.4939 | 0.0196 | 0.031 | 0.0432 | 0.057 | 0.0716 | 0.0875 | 0.104 | 0.123 | 0.145
x2 = 0.6871 | 0.0177 | 0.0276 | 0.0399 | 0.0523 | 0.0687 | 0.0849 | 0.102 | 0.12 | 0.143
x2 = 0.8541 | 0.0117 | 0.0175 | 0.0245 | 0.0326 | 0.0408 | 0.0514 | 0.0625 | 0.075 | 0.0903

O=C1NS(=O)(=O)c2ccccc21 + CC#N + CCO
solubility (g/100 g solution)
Conditions | x2 = 0.0999 | x2 = 0.2002 | x2 = 0.2997 | x2 = 0.3998 | x2 = 0.5002 | x2 = 0.5999 | x2 = 0.7001 | x2 = 0.7999 | x2 = 0.8999
293.15 K | 5.33 | 7.27 | 8.67 | 9.52 | 9.7 | 9.58 | 8.96 | 7.58 | 5.52
298.15 K | 5.91 | 7.97 | 9.45 | 10.3 | 10.7 | 10.6 | 9.85 | 8.34 | 6.08
303.15 K | 6.8 | 9.11 | 10.7 | 11.7 | 12.1 | 11.9 | 11.1 | 9.45 | 6.93
308.15 K | 7.49 | 9.96 | 11.7 | 12.7 | 13.5 | 13.2 | 12.3 | 10.5 | 7.63
313.15 K | 8.72 | 11.5 | 13.3 | 14.4 | 14.8 | 14.6 | 13.6 | 11.7 | 8.61
318.15 K | 10.1 | 13.2 | 15.3 | 16.5 | 16.8 | 16.7 | 15.4 | 13.3 | 9.87
323.15 K | 11.4 | 14.7 | 16.9 | 18.1 | 18.5 | 18.2 | 17 | 14.6 | 10.9
